{"source": "paper PMC13366377", "about": "(Acta Pharmaceutica Sinica. B, 2025)", "key": {"hα7 nAChR": {"target": "hα7 nAChR (Homo sapiens, UniProt P36544)", "sequence (P36544 23-502)": "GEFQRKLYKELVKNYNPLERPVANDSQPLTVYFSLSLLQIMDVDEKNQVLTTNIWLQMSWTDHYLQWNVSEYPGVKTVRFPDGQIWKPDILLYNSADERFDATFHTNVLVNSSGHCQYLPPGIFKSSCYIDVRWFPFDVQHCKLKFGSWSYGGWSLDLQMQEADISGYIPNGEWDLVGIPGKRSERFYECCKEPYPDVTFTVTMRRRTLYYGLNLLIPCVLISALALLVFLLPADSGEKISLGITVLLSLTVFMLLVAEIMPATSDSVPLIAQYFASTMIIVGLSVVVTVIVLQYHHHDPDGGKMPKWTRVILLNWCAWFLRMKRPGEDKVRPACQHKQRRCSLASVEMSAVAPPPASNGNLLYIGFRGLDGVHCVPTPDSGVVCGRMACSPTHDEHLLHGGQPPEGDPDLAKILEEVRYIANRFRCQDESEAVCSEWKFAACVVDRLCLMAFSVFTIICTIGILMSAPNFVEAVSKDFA", "assay": "cell-based"}, "α7^EM nAChR": {"target": "α7^EM nAChR (Homo sapiens, UniProt P36544)", "sequence (P36544 23-233 limits assumed)": "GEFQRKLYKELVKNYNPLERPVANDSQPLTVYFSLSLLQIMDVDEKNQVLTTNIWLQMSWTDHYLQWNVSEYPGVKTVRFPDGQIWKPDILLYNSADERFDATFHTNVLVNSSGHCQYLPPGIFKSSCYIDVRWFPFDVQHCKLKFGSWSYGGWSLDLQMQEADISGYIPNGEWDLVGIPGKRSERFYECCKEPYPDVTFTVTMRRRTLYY", "assay": "cell-based", "type": "cell-based"}, "α7^EM nAChR S56A": {"target": "α7^EM nAChR S56A (Homo sapiens, UniProt P36544, S56A, form not given)", "sequence (P36544 23-502 S56A, form open)": "as the sequence (P36544 23-502) above, with S34A counted along it", "type": "cell-based", "conditions": "read-out: IC50 at α7^EM nAChR mutant S56A"}, "α7^EM nAChR Q139E": {"target": "α7^EM nAChR Q139E (Homo sapiens, UniProt P36544, Q139E, form not given)", "sequence (P36544 23-502 Q139E, form open)": "as the sequence (P36544 23-502) above, with Q117E counted along it", "type": "cell-based", "conditions": "read-out: IC50 at α7^EM nAChR mutant Q139E"}, "α7^EM nAChR E184Q": {"target": "α7^EM nAChR E184Q (Homo sapiens, UniProt P36544, E184Q, form not given)", "sequence (P36544 23-502 E184Q, form open)": "as the sequence (P36544 23-502) above, with E162Q counted along it", "type": "cell-based", "conditions": "read-out: IC50 at α7^EM nAChR mutant E184Q"}, "α7^EM nAChR R208A": {"target": "α7^EM nAChR R208A (Homo sapiens, UniProt P36544, R208A, form not given)", "sequence (P36544 23-502 R208A, form open)": "as the sequence (P36544 23-502) above, with R186A counted along it", "type": "cell-based", "conditions": "read-out: IC50 at α7^EM nAChR mutant R208A"}, "in vitro": {"assay": "in vitro", "conditions": "human, serum"}}, "note": "Positions of bridges follow the written chain, without caps; N, C: chain ends. Non-standard residues stand in square brackets, D forms with d. Residues, ends and D or L forms follow the SMILES beside them. pGlu = O=C1CC[C@@H](C(=O)O)N1", "data": [{"compound": "N=C(N)NCCC[C@@H]1NC(=O)[C@@H](NC(=O)CNC(=O)[C@@H]2CCCN2C(=O)[C@@H](N)CCC(N)=O)CSSC[C@@H](C(N)=O)NC(=O)[C@H](Cc2c[nH]c3ccccc23)NC(=O)[C@H](CCCNC(=N)N)NC(=O)[C@H](CO)NC(=O)[C@H](Cc2c[nH]c3ccccc23)NC(=O)[C@H](CCCNC(=N)N)NC1=O", "note": "[[W6R]SS1] (H-QPGCRRWSRWC-NH2; disulfide 4-11)", "values": [{"measurement": "potency at hα7 nAChR relative to parent peptide (in words)", "setting": "hα7 nAChR", "result": "completely lost potency"}]}, {"compound": "N=C(N)NCCC[C@@H]1NC(=O)[C@H](CO)NC(=O)[C@H](Cc2c[nH]c3ccccc23)NC(=O)[C@H](Cc2c[nH]c3ccccc23)NC(=O)[C@H](CCCNC(=N)N)NC(=O)[C@@H](NC(=O)[C@H](CCCNC(=N)N)NC(=O)[C@@H]2CCCN2C(=O)[C@@H](N)CCC(N)=O)CSSC[C@@H](C(N)=O)NC(=O)[C@H](Cc2c[nH]c3ccccc23)NC1=O", "note": "[[G3R]SS1] (H-QPRCRWWSRWC-NH2; disulfide 4-11)", "values": [{"measurement": "potency at hα7 nAChR relative to parent peptide (in words)", "setting": "hα7 nAChR", "result": "no significant differences"}]}, {"compound": "N=C(N)NCCC[C@@H]1NC(=O)[C@@H](NC(=O)CNC(=O)[C@@H]2CCCN2C(=O)[C@@H]2CCC(=O)N2)CSSC[C@@H](C(N)=O)NC(=O)[C@H](Cc2c[nH]c3ccccc23)NC(=O)[C@H](CCCNC(=N)N)NC(=O)[C@H](CCCNC(=N)N)NC(=O)[C@H](Cc2c[nH]c3ccccc23)NC(=O)[C@H](Cc2c[nH]c3ccccc23)NC1=O", "note": "[[Q1Pyr, S8R]SS1] ([pGlu]PGCRWWRRWC-NH2; disulfide 4-11)", "values": [{"measurement": "IC50", "setting": "α7^EM nAChR", "result": "1390 ± 260", "unit": "nM"}]}, {"compound": "N=C(N)NCCC[C@@H]1NC(=O)[C@@H](NC(=O)CNC(=O)[C@@H]2CCCN2C(=O)[C@@H](N)CCC(N)=O)CSSC[C@@H](C(N)=O)NC(=O)[C@H](Cc2c[nH]c3ccccc23)NC(=O)[C@H](CCCNC(=N)N)NC(=O)[C@H](CCCNC(=N)N)NC(=O)[C@H](Cc2c[nH]c3ccccc23)NC(=O)[C@H](CCCNC(=N)N)NC1=O", "note": "[[W6R, S8R]SS1] (H-QPGCRRWRRWC-NH2; disulfide 4-11)", "values": [{"measurement": "potency of [S8R]SS1 analogues at hα7 nAChR relative to [S8R]SS1 (in words)", "setting": "hα7 nAChR; n = 8-10", "result": "maintained potency"}]}, {"compound": "N=C(N)NCCC[C@@H]1NC(=O)[C@@H](NC(=O)CNC(=O)[C@@H]2CCCN2C(=O)[C@@H](N)CCC(N)=O)CSSC[C@@H](C(N)=O)NC(=O)[C@H](Cc2c[nH]c3ccccc23)NC(=O)[C@H](CCCNC(=N)N)NC(=O)[C@H](CCCNC(=N)N)NC(=O)[C@H](Cc2c[nH]c3ccccc23)NC(=O)[C@H](Cc2c[nH]c3ccccc23)NC1=O", "note": "[[S8R]SS1] (H-QPGCRWWRRWC-NH2; disulfide 4-11)", "values": [{"measurement": "IC50", "setting": "α7^EM nAChR", "result": "659 ± 92.9", "unit": "nM"}, {"measurement": "IC50", "setting": "α7^EM nAChR S56A", "result": "234 ± 36.1", "unit": "nM"}, {"measurement": "IC50", "setting": "α7^EM nAChR Q139E", "result": "852 ± 66.3", "unit": "nM"}, {"measurement": "IC50", "setting": "α7^EM nAChR E184Q", "result": "555 ± 99.9", "unit": "nM"}, {"measurement": "IC50", "setting": "α7^EM nAChR R208A", "result": "1930 ± 196", "unit": "nM"}]}, {"compound": "N=C(N)NCCC[C@@H]1NC(=O)[C@@H](NC(=O)CNC(=O)[C@H](CCCNC(=N)N)NC(=O)[C@@H](N)CCC(N)=O)CSSC[C@@H](C(N)=O)NC(=O)[C@H](Cc2c[nH]c3ccccc23)NC(=O)[C@H](CCCNC(=N)N)NC(=O)[C@H](CO)NC(=O)[C@H](Cc2c[nH]c3ccccc23)NC(=O)[C@H](Cc2c[nH]c3ccccc23)NC1=O", "note": "[[P2R]SS1] (H-QRGCRWWSRWC-NH2; disulfide 4-11)", "values": [{"measurement": "potency at hα7 nAChR relative to parent peptide (in words)", "setting": "hα7 nAChR", "result": "no significant differences"}]}, {"compound": "N=C(N)NCCC[C@@H]1NC(=O)[C@@H](NC(=O)CNC(=O)[C@@H]2CCCN2C(=O)[C@@H](N)CCCNC(=N)N)CSSC[C@@H](C(N)=O)NC(=O)[C@H](Cc2c[nH]c3ccccc23)NC(=O)[C@H](CCCNC(=N)N)NC(=O)[C@H](CCCNC(=N)N)NC(=O)[C@H](Cc2c[nH]c3ccccc23)NC(=O)[C@H](Cc2c[nH]c3ccccc23)NC1=O", "note": "[[Q1R, S8R]SS1] (H-RPGCRWWRRWC-NH2; disulfide 4-11)", "values": [{"measurement": "IC50", "setting": "α7^EM nAChR", "result": "136 ± 27.8", "unit": "nM"}, {"measurement": "increase in potency versus [S8R]SS1 at α7^EM nAChR", "setting": "α7^EM nAChR", "result": 4.8, "unit": "fold"}]}, {"compound": "N=C(N)NCCC[C@@H]1NC(=O)[C@@H](NC(=O)CNC(=O)[C@@H]2CCCN2C(=O)[C@@H](N)CCC(=O)O)CSSC[C@@H](C(N)=O)NC(=O)[C@H](Cc2c[nH]c3ccccc23)NC(=O)[C@H](CCCNC(=N)N)NC(=O)[C@H](CCCNC(=N)N)NC(=O)[C@H](Cc2c[nH]c3ccccc23)NC(=O)[C@H](Cc2c[nH]c3ccccc23)NC1=O", "note": "[[Q1E, S8R]SS1] (H-EPGCRWWRRWC-NH2; disulfide 4-11)", "values": [{"measurement": "IC50", "setting": "α7^EM nAChR", "result": "364 ± 103", "unit": "nM"}, {"measurement": "increase in potency versus [S8R]SS1 at α7^EM nAChR", "setting": "α7^EM nAChR", "result": 1.8, "unit": "fold"}]}, {"compound": "N=C(N)NCCC[C@@H]1NC(=O)[C@@H](NC(=O)CN)CSSC[C@@H](C(N)=O)NC(=O)[C@H](Cc2c[nH]c3ccccc23)NC(=O)[C@H](CCCNC(=N)N)NC(=O)[C@H](CCCNC(=N)N)NC(=O)[C@H](Cc2c[nH]c3ccccc23)NC(=O)[C@H](Cc2c[nH]c3ccccc23)NC1=O", "note": "[[ΔQP, S8R]SS1] (H-GCRWWRRWC-NH2; disulfide 2-9)", "values": [{"measurement": "IC50", "setting": "hα7 nAChR", "result": 49.2, "unit": "nM"}, {"measurement": "increase in potency compared to SS1", "setting": "hα7 nAChR", "result": "~29", "unit": "fold"}, {"measurement": "remaining at 24 h", "setting": "in vitro", "result": 14, "unit": "%"}]}, {"compound": "N=C(N)NCCC[C@@H]1NC(=O)[C@@H](NC(=O)CNC(=O)[C@@H]2CCCN2C(=O)[C@@H](N)CCC(N)=O)CSSC[C@@H](C(N)=O)NC(=O)[C@H](Cc2c[nH]c3ccccc23)NC(=O)[C@H](CCCNC(=N)N)NC(=O)[C@H](CO)NC(=O)[C@H](CCCNC(=N)N)NC(=O)[C@H](Cc2c[nH]c3ccccc23)NC1=O", "note": "[[W7R]SS1] (H-QPGCRWRSRWC-NH2; disulfide 4-11)", "values": [{"measurement": "potency at hα7 nAChR relative to parent peptide (in words)", "setting": "hα7 nAChR", "result": "no significant differences"}]}, {"compound": "N=C(N)NCCC[C@@H]1NC(=O)[C@@H](NC(=O)CNC(=O)[C@@H]2CCCN2C(=O)[C@@H](N)CCCNC(=N)N)CSSC[C@@H](C(N)=O)NC(=O)[C@H](Cc2c[nH]c3ccccc23)NC(=O)[C@H](CCCNC(=N)N)NC(=O)[C@H](CO)NC(=O)[C@H](Cc2c[nH]c3ccccc23)NC(=O)[C@H](Cc2c[nH]c3ccccc23)NC1=O", "note": "[[Q1R]SS1] (H-RPGCRWWSRWC-NH2; disulfide 4-11)", "values": [{"measurement": "potency at hα7 nAChR relative to parent peptide (in words)", "setting": "hα7 nAChR", "result": "no significant differences"}]}]}
